Experiment [1] concerns the target thromboxane A2 receptor (TBXA2R) (Gα13) (Homo sapiens, UniProt P21731). Description: BRET² G protein dissociation assay, TBXA2R with Gα13. The format is cell-based. To be noted: for Mean (plotted), G protein dissociation BRET² signal: TBXA2R-G13, Fig. 5c source data. On the procedure: (§1) G protein dissociation assays were performed according to the original protocols of the TRUPATH BRET² assay[47],[87] but with subtle modifications as previously described[61],[88],[89]. All reagents and cells were obtained from Thermo Fisher Scientific unless indicated otherwise. The coding sequences for the G protein biosensors[47] (Gα12-Rluc8, Gα13-Rluc8, wt Gβ3, and Gγ9-GFP), the wt GPR55, the construct used for cryo-EM (with GFP bearing a G67A mutation to disrupt fluorescence properties[48] for BRET² assays), GPR55 binding pocket mutants (G152^4.56F, G152^4.56W, N171^ECL2Q, N171^ECL2A, T176^5.33A, R253^6.62A), and the wt TBXA2R were codon-optimized for Homo sapiens, gene-synthesized, and sub-cloned into pcDNA^TM3.1(+) between NheI and HindIII restriction sites by GeneArt (Thermo Fisher Scientific). […] Freshly grown cells were washed with Dulbecco’s Balanced Salt Solution (DPBS, cat. #14200075) and detached using trypsin-ethylenediaminetetraacetic acid (trypsin-EDTA) (cat. #25300-062). Then, the cells were reconstituted to 500,000 cells per mL with fresh medium, and 1,000,000 cells were seeded into each well of a 6-well plate. After 3 h incubation at 37 °C and 5% CO2, adherent cells were transfected with 600 ng DNA (1:1:1:1 ratio of plasmid DNA for GPR55, wt Gβ3, Gγ9-GFP, and Gα12-Rluc8 or Gα13-Rluc8). Plasmid DNA was mixed with 1.5 µL Lipofectamine^TM 2000 (cat. #11668027) in Opti-MEM^TM medium (cat. #31985062) and incubated for 20 min. Then, the mixture was added to each well of the 6-well plate following 24 h incubation at 37 °C and 5% CO2. Transfected cells were washed with DPBS, detached using EDTA (Versene, cat. #15040066), and reconstituted into fresh medium at 500,000 cells mL^−1. From this suspension, 50,000 cells were seeded into each well of a white-bottom 96-well plate (Nunc^TM MicroWell^TM 96 wells, cat. #136101) following overnight incubation at 37 °C and 5% CO2. Then, the adherent cells were washed with assay medium [Hank’s balanced salt solution (HBSS, cat. #14065056) plus 20 mM HEPES pH 7.4 (cat. #15630056)] and finally reconstituted into 50 µL of the same medium. […] Methoxy e-Coelenterazine was used as luciferase substrate (Prolume Purple, NanoLight Technology, cat. #369), reconstituted at 1 mM in methanol and diluted to 37.5 µM with assay buffer (7.5 µM final assay concentration). The assay was started by the addition of 20 µL luciferase substrate to each well of the assay plate using a Multidrop^TM Combi reagent dispenser (Thermo Fisher Scientific), followed by 5 min incubation at room temperature. Then, 30 µL of agonist dilutions or DMSO control was added (final DMSO concentration 1.5%), followed by an additional 5 min incubation at room temperature.

The next experiment concerns the target wt GPR55 (Gα12) (Homo sapiens, UniProt Q9Y2T6). Description: BRET² G protein dissociation assay, wt GPR55 with Gα12. The experiment is classed as cell-based. Conditions: for ΔBRET² ratio (Mean): GPR55-wt-G12.
Source text: Guided by structural insights, we employed the G protein dissociation assay to validate the G protein selectivity of GPR55. The sequences of Gα13 and Gα12 are highly similar (76% sequence similarity) and only seven Gα13 residues differ within a 4 Å sphere of the receptor- G protein interaction site (Fig. 5d). Therefore, we included Gα12 in our assays as a control since it was reported that 1-AG-PI-activated GPR55 signals exclusively via Gα13[10]. Herein, we observed robust G protein activation (concluded from a BRET² ratio decrease) when GPR55 was co-expressed with Gα13 (Fig. 5b), even without the addition of any ligand. (Fig. 2f and Supplementary Table S3). This observation is indicative of constitutive activity; however, it could also be explained by GPR55 interaction with cellular lipids that are ubiquitously present. […] (Fig. 5c).
as §1

thromboxane A2 receptor (TBXA2R) (Gα13), sequence (P21731 whole entry, species assumed): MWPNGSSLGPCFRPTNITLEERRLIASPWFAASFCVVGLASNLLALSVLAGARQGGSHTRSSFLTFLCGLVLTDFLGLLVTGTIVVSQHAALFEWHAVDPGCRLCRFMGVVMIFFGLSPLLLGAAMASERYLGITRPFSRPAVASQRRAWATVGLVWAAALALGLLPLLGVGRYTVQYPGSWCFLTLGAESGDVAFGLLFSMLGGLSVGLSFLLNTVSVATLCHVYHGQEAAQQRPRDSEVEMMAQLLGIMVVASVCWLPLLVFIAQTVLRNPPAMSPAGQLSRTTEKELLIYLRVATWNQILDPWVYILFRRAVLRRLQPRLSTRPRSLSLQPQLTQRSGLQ
thromboxane A2 receptor (TBXA2R) (Gα13), sequence (Q14344 whole entry partner, species assumed): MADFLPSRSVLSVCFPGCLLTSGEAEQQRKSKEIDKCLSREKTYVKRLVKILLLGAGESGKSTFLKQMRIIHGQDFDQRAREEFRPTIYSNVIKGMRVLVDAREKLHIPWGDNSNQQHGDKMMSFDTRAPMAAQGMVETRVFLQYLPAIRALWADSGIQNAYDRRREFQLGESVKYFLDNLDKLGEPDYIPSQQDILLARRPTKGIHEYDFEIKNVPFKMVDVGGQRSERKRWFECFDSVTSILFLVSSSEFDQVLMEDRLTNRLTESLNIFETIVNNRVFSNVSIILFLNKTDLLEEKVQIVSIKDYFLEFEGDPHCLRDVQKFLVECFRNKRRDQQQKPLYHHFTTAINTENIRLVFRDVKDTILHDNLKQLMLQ
thromboxane A2 receptor (TBXA2R) (Gα13), sequence (P16520 whole entry partner, species assumed): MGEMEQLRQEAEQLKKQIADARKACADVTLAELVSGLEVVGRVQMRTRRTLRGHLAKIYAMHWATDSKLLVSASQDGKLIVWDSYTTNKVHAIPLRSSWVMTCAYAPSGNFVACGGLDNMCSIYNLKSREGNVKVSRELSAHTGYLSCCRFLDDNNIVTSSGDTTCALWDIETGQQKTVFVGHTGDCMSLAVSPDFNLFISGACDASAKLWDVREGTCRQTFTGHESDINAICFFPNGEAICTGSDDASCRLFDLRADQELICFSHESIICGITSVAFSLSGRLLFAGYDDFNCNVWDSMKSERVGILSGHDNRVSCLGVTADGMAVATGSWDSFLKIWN
thromboxane A2 receptor (TBXA2R) (Gα13), sequence (O14610 1-66 partner limits assumed, species assumed): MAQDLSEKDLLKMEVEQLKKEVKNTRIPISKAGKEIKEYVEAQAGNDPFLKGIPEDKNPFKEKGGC
wt GPR55 (Gα12), sequence (Q9Y2T6 whole entry): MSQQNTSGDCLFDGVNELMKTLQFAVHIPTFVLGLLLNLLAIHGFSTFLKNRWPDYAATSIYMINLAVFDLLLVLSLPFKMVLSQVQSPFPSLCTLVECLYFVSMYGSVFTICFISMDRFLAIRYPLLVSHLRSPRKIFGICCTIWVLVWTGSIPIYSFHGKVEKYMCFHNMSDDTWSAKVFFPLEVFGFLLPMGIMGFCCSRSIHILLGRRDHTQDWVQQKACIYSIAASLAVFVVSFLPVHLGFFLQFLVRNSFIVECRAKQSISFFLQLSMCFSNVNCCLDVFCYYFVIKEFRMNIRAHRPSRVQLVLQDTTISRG

Regarding `Cc1cccc(N2CCN(C(=O)c3cc(S(=O)(=O)N(C)C)ccc3N3CCCC3)CC2)c1C` [ML184, 3-[[4-(2,3-dimethylphenyl)-1-piperazinyl]carbonyl]-N,N-dimethyl-4-(1-pyrrolidinyl)benzenesulfonamide], the “Mean (plotted), G protein dissociation BRET² signal” value (shortened to “Mean (plotted)”) is listed as -0.002664 in experiment [1] (concentration 300 pM); -0.001942 in experiment [1] (concentration 1e-9 M); -0.0001851 in experiment [1] (concentration 3e-9 M); 0.008857 in experiment [1] (concentration 1e-8 M); 0.0122 in experiment [1] (concentration 3e-8 M); 0.01041 in experiment [1] (concentration 1e-7 M). The “Mean (plotted)” value in experiment [1] (concentration 3e-7 M) is on record as 0.01174; in experiment [1] (concentration 1e-6 M), 0.01712; in experiment [1] (concentration 3e-6 M) it was 0.01801; in experiment [1] (concentration 1e-5 M), 0.01748; in experiment [1] (concentration 3e-5 M), 0.01231. Besides, the “ΔBRET² ratio (Mean)” value is given as 0.009016 on wt GPR55 (Gα12) (3e-10 M); 0.003569 on wt GPR55 (Gα12) (1e-9 M); -0.002484 on wt GPR55 (Gα12) (3e-9 M); -0.008889 on wt GPR55 (Gα12) (1e-8 M); -0.006497 on wt GPR55 (Gα12) (3e-8 M); -0.00961 at wt GPR55 (Gα12) (1e-7 M). The “ΔBRET² ratio (Mean)” value at wt GPR55 (Gα12) (3e-7 M) is -0.01427; on wt GPR55 (Gα12) (1e-6 M) it was -0.01536; on wt GPR55 (Gα12) (3e-6 M), -0.01786; on wt GPR55 (Gα12) (1e-5 M), -0.02016; at wt GPR55 (Gα12) (3e-5 M), -0.02115.

With `CCCCC[C@H](O)/C=C/[C@@H]1[C@@H](C/C=C\CCCC(=O)O)[C@H]2CO[C@@H]1C2` [U-46619], in experiment [1] (TBXA2, Gα13), the “Efficacy ± SEM (%)” value is reported as 100 ± 2%. For the same molecule, the “pEC50 ± SEM” value in experiment [1] (TBXA2, Gα13) is on record as 9.03 ± 0.11. Further, in experiment [1] (TBXA2R via Gα13, read-out: potency (EC50)), the EC50 is 0.93 nM. The “Mean (plotted)” value in experiment [1] (concentration 10 pM) is 0.004083; in experiment [1] (concentration 30 pM), 0.00585; in experiment [1] (concentration 300 pM) it was -0.03967; in experiment [1] (concentration 1e-9 M), -0.07222; in experiment [1] (concentration 3e-9 M) it was -0.103; in experiment [1] (concentration 3e-8 M), -0.1326. Further, the figures for the “Mean (plotted)” value in experiment [1] (concentration 3e-7 M) and in experiment [1] (concentration 1e-6 M) were -0.1394 and -0.1409, respectively. Besides, the “G protein activation at GPR55-transfected cells (in words)” value on wt GPR55 (Gα12) (wt GPR55, Gα12) is “inactive”.

What is called EC50 is the concentration giving half of the maximal effect.

(Values after PMC11861906, “Structural basis for lipid-mediated activation of G protein-coupled receptor GPR55” (Nature Communications, 2025).)
